Results published in patent publication US7488855B2 (CJ Corporation, priority 2004, dated 2009).
Converted amounts (≈) assume the structure as drawn.

Experiment: Solubility in ethyl acetate by fractionation and phase separation, HPLC analysis of the solvent layer
Type: physicochemical

solubility at 2 h (organic solvent or mixture)	SMILES	solubility in EA (ethyl acetate, mixture 10:1:2:2 dissolved at 30-100 g/L 1,3-propanediol, left alone for 2 hours, upper solvent layer analysed by HPLC)
	CC(O)CO (centres unmarked) [1,2-propanediol]	5 to 7 mg/mL
3 to 6 mg/mL (≈ 32.6 to 65.2 mM)	OCC(O)CO [glycerol]	
